From patent US11813306B2, “Cyclic tetramer compounds as proprotein convertase subtilisin/kexin type 9 (PCSK9) inhibitors for the treatment of metabolic disorders” (NOVARTIS AG, priority 2018, dated 2023) come the findings set out here.

The target of the test is human PCSK9 (Homo sapiens, UniProt Q8NBP7). The test is described as follows: PCSK9 ligand binding assay (TR-FRET): interference with binding of human PCSK9 to human LDLR. As to conditions: for IC50: Human PCSK9 Alexa Fluor 647 / Human LDLR extracellular domain-Europium Kryptate; for Max % inhibition: efficacy (Amax), 100% = 1 uM unlabeled human PCSK9, 0% = DMSO. An outline of the steps:
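Read-out was TR-FRET ratio (665 nm over 615 nm, 330 nm excitation) between Alexa Fluor 647-human PCSK9 (16 nM added) and Europium Kryptate-human LDLR ectodomain (4 nM added). Compound and PCSK9 were mixed 30 min before LDLR, then incubated 2 h. Inhibition was normalised to DMSO and unlabelled-PCSK9 controls, giving IC50 and Amax.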

Chain of human PCSK9 (Q8NBP7 153-692): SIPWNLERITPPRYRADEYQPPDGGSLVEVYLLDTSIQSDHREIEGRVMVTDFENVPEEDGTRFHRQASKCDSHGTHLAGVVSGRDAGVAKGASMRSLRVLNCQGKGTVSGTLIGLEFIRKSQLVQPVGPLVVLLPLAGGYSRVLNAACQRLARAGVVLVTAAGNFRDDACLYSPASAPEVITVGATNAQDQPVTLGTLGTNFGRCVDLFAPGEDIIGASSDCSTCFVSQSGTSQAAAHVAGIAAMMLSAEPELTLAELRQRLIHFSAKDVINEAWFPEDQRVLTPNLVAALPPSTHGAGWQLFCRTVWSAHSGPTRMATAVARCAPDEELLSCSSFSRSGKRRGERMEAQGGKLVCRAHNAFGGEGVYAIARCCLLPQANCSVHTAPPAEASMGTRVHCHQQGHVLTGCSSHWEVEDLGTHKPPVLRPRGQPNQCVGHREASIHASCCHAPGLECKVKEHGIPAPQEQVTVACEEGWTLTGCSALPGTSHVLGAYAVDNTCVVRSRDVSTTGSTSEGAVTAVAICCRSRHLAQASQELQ
Chain of human PCSK9 (Q8NBP7 31-152 partner limits assumed): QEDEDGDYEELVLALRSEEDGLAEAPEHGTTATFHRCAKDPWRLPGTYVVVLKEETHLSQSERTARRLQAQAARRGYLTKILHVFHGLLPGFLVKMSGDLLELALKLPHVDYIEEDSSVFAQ

As to `CCc1ccc(CN2C(=O)C[C@@H]([C@@H]3CCc4ccccc43)C(=O)N(C)C[C@@H](Cc3ccc(Cl)cc3)N(C)C(=O)[C@@H](CO)NC(=O)[C@@H]2C)c(Oc2ccc(-c3cnc(CN(C)C)n3C)cc2)c1` [Compound 121], the IC50 was 91.5 nM and the Max % inhibition came out at 92.9%.

Take `COC[C@H]1NC(=O)[C@H](C)N(Cc2ccc(Cl)cc2Oc2ccc(-c3cnc(CN(C)C)n3C)nc2)C(=O)C[C@@H](Cc2ccccc2)C(=O)N2CCC[C@@](Cc3ccc(Cl)cc3)(C2)NC1=O` [Compound 122, (3R, 7S, 10R, 13R)-3-benzyl-6-(4-chloro-2-((6-(2-((dimethylamino)methyl)-1-methyl-1H-imidazol-5-yl)pyridin-3-yl)oxy)benzyl)-13-(4-chlorobenzyl)-10-(methoxymethyl)-7-methyl-1,6,9,12-tetraazabicyclo[11.3.1]heptadecane-2,5,8,11-tetraone]: the IC50 stood at 94.3 nM and the Max % inhibition came to 96.9%.

As for `C[C@H]1C(=O)N[C@@H](CO)C(=O)N[C@@]2(Cc3ccc(Cl)cc3)CCCN(C2)C(=O)[C@H]([C@@H]2CCc3ccccc32)CC(=O)N1Cc1ccc(Oc2ccc(-c3cnc(CN(C)C)n3C)cc2)cc1F` [Compound 123], the IC50 was found to be 346 nM and the Max % inhibition is on record as 84.4%.

On to `CC[C@@H]1CC(=O)N(Cc2ccc(Cl)cc2Oc2ccc(-c3cnc(CN4CCCC4)n3C)cc2)[C@@H](C)C(=O)N[C@@H](CO)C(=O)N(C)[C@H](Cc2ccc(Cl)cc2)CNC1=O.Cl` [Compound 124, (2S, 5S, 8R, 12R)-1-(4-chloro-2-(4-(1-methyl-2-(pyrrolidin-1-ylmethyl)-1H-imidazol-5-yl)phenoxy)benzyl)-8-(4-chlorobenzyl)-12-ethyl-5-(hydroxymethyl)-2,7-dimethyl-1,4,7,10-tetraazacyclotetradecane-3,6,11,14-tetraone], for which the IC50 was determined as 102 nM and the Max % inhibition is given as 96.8%.

In the case of `COC[C@@H]1NC(=O)[C@H](CCN2CCOCC2)N(Cc2ccc(Cl)cc2Oc2ccc(-c3cnc(CN(C)C)n3C)cc2)C(=O)C[C@@H]([C@H]2CCc3ccccc32)C(=O)N(C)C[C@@H](Cc2ccc(Cl)cc2)N(C)C1=O.Cl` [Compound 125, (2S, 5S, 8R, 12S)-1-(4-chloro-2-(4-(2-((dimethylamino)methyl)-1-methyl-1H-imidazol-5-yl)phenoxy)benzyl)-8-(4-chlorobenzyl)-12-((R)-2,3-dihydro-1H-inden-1-yl)-5-(methoxymethyl)-7,10-dimethyl-2-(2-morpholinoethyl)-1,4,7,10-tetraazacyclotetradecane-3,6,11,14-tetraone], the IC50 was determined as 103 nM and the Max % inhibition is listed as 92.2%.

Consider `C[C@H](NCc1ccc(Cl)cc1Oc1ccc(-c2cnc(CN(C)C)n2C)cc1)C(=O)N[C@H]1COC(=O)C[C@@H](Cc2ccccc2)C(=O)N2CCC[C@@](Cc3ccc(Cl)cc3)(C2)N(C)C1=O` [Compound 126, (2S)-N-((3R, 8S, 11R)-3-benzyl-11-(4-chlorobenzyl)-10-methyl-2,5,9-trioxo-6-oxa-1,10-diazabicyclo[9.3.1]pentadecan-8-yl)-2-((4-chloro-2-(4-(2-((dimethylamino)methyl)-1-methyl-1H-imidazol-5-yl)phenoxy)benzyl)amino)propanamide], for which the IC50 amounted to 612 nM and the Max % inhibition worked out at 100.1%.

As to `COC[C@@H]1NC(=O)[C@H](CCCN2CCOCC2)N(Cc2ccc(Cl)cc2Oc2ccc(-c3cnc(CN(C)C)n3C)cc2)C(=O)C[C@@H]([C@H]2CCc3ccccc32)C(=O)N(C)C[C@@H](Cc2ccc(Cl)cc2)N(C)C1=O.Cl` [Compound 127, (2S, 5S, 8R, 12S)-1-(4-chloro-2-(4-(2-((dimethylamino)methyl)-1-methyl-1H-imidazol-5-yl)phenoxy)benzyl)-8-(4-chlorobenzyl)-12-((R)-2,3-dihydro-1H-inden-1-yl)-5-(methoxymethyl)-7,10-dimethyl-2-(3-morpholinopropyl)-1,4,7,10-tetraazacyclotetradecane-3,6,11,14-tetraone], the IC50 amounted to 138 nM and the Max % inhibition was found to be 94.3%.

Consider `CC[C@@H]1CC(=O)N(Cc2ccc(Cl)cc2Oc2ccc(-c3cnc(CN4CCCC4)n3C)cc2)[C@@H](C)C(=O)N[C@@H](CO)C(=O)N(C)[C@H](Cc2ccc(Cl)cc2)CN(C)C1=O.Cl` [Compound 128, (2S, 5S, 8R, 12R)-1-(4-chloro-2-(4-(1-methyl-2-(pyrrolidin-1-ylmethyl)-1H-imidazol-5-yl)phenoxy)benzyl)-8-(4-chlorobenzyl)-12-ethyl-5-(hydroxymethyl)-2,7,10-trimethyl-1,4,7, 10-tetraazacyclotetradecane-3,6,11,114-tetraone], for which the IC50 stood at 250 nM and the Max % inhibition is recorded as 89.8%.

In the case of `CC(=O)C[C@@H]1NC(=O)[C@H](C)N(Cc2ccc(Cl)cc2Oc2ccc(-c3cnc(CN4CCCC4)n3C)cc2)C(=O)C[C@@H](Cc2ccccc2)C(=O)N(C)C[C@@H](Cc2ccc(Cl)cc2)N(C)C1=O.Cl` [Compound 129, (2S,5S,8R,12R)-12-benzyl-1-(4-chloro-2-(4-(1-methyl-2-(pyrrolidin-1-ylmethyl)-1H-imidazol-5-yl)phenoxy)benzyl)-8-(4-chlorobenzyl)-2,7,10-trimethyl-5-(2-oxopropyl)-1,4,7,10-tetraaza-cyclotetradecane-3,6,11,14-tetraone hydrochloride], the half-maximal inhibitory concentration (IC50) worked out at 205 nM and the Max % inhibition is recorded as 87.3%.

Consider `C[C@H](NCc1ccc(Cl)cc1Oc1ccc(-c2cnc(CN(C)C)n2C)cc1)C(=O)N[C@H]1COC(=O)C[C@@H](Cc2ccccc2)C(=O)N(C)[C@@]2(Cc3ccc(Cl)cc3)CCCN(C2)C1=O` [Compound 130, (2S)-N-((3S, 8R, 11R)-8-benzyl-11-(4-chlorobenzyl)-10-methyl-2,6,9-trioxo-5-oxa-1,10-diazabicyclo[9.3.1]pentadecan-3-yl)-2-((4-chloro-2-(4-(2-((dimethylamino)methyl)-1-methyl-1H-imidazol-5-yl)phenoxy)benzyl)amino)propanamide], for which the IC50 was 879 nM and the Max % inhibition is 99.3%.

Take `COC[C@@H]1NC(=O)[C@H](CCCCN2CCOCC2)N(Cc2ccc(Cl)cc2Oc2ccc(-c3cnc(CN(C)C)n3C)cc2)C(=O)C[C@@H]([C@H]2CCc3ccccc32)C(=O)N(C)C[C@@H](Cc2ccc(Cl)cc2)N(C)C1=O.Cl` [Compound 131, (2S, 5S, 8R, 12S)-1-(4-chloro-2-(4-(2-((dimethylamino)methyl)-1-methyl-1H-imidazol-5-yl)phenoxy)benzyl)-8-(4-chlorobenzyl)-12-((R)-2,3-dihydro-1H-inden-1-yl)-5-(methoxymethyl)-7,10-dimethyl-2-(4-morpholinobutyl)-1,4,7,10-tetraazacyclotetradecane-3,6,11,14-tetraone]: the IC50 amounted to 281 nM and the Max % inhibition worked out at 91.9%.

Consider `COC[C@@H]1NC(=O)[C@H](CCC(=O)N2CCC2)N(Cc2ccc(Cl)cc2Oc2ccc(-c3cnc(CN4CCCC4)n3C)cc2)C(=O)C[C@@H]([C@H]2CC(C)(C)c3ccccc32)C(=O)N(C)C[C@@H](Cc2ccc(Cl)cc2)N(C)C1=O.Cl` [Compound 132, (2S,5S,8R,12S)-2-(3-(azetidin-1-yl)-3-oxopropyl)-1-(4-chloro-2-(4-(1-methyl-2-(pyrrolidin-1-ylmethyl)-1H-imidazol-5-yl)phenoxy)benzyl)-8-(4-chlorobenzyl)-12-((R)-3,3-dimethyl-2,3-dihydro-1H-inden-1-yl)-5-(methoxymethyl)-7,10-dimethyl-1,4,7,10-tetraazacyclotetradecane-3,6,11,14-tetraone hydrochloride], for which the IC50 is 231 nM and the Max % inhibition is reported as 100.3%.

Consider `COC[C@@H]1NC(=O)[C@H](C)N(Cc2ccc(Cl)cc2Oc2ccc(-c3cnc(CN4CCCC4)n3C)cc2)C(=O)C[C@@H](N(C)C)C(=O)N(C)C[C@@H](Cc2ccc(Cl)cc2)N(C)C1=O.Cl` [Compound 134, (2S, 5S, 8R, 12R)-1-(4-chloro-2-(4-(1-methyl-2-(pyrrolidin-1-ylmethyl)-1H-imidazol-5-yl)phenoxy)benzyl)-8-(4-chlorobenzyl)-12-(dimethylamino)-5-(methoxymethyl)-2,7,10-trimethyl-1,4,7,10-tetraazacyclotetradecane-3,6,11,14-tetraone], for which the IC50 was 490 nM and the Max % inhibition came to 93.6%.

Turning to `C[C@H]1C(=O)N[C@@H](CC(=O)O)C(=O)N(C)[C@H](Cc2ccc(Cl)cc2)CN(C)C(=O)[C@H](Cc2ccccc2)CC(=O)N1Cc1ccc(Cl)cc1Oc1ccc(-c2cnc(CN3CCCC3)n2C)cc1.Cl` [Compound 135, 2-((2S, 5S, 8R, 12R)-12-benzyl-1-(4-chloro-2-(4-(1-methyl-2-(pyrrolidin-1-ylmethyl)-1H-imidazol-5-yl)phenoxy)benzyl)-8-(4-chlorobenzyl)-2,7,10-trimethyl-3,6,11,14-tetraoxo-1,4,7,10-tetraazacyclotetradecan-5-yl)acetic acid], the 50% inhibitory concentration (IC50) turned out to be 631 nM and the Max % inhibition was 91.3%.

Take `COC[C@@H]1NC(=O)[C@H](C)N(Cc2c(F)cc(Cl)cc2Oc2ccc(-c3cnc(CNC(C)(C)C)n3C)cc2)C(=O)C[C@@H](CC(F)(F)F)C(=O)N2CCC[C@@](Cc3ccc(Cl)cc3)(C2)N(C)C1=O` [Compound 136, (3S,7S,10S,13R)-6-(2-(4-(2-((tert-Butylamino)methyl)-1-methyl-1H-imidazol-5-yl)phenoxy)-4-chloro-6-fluorobenzyl)-13-(4-chlorobenzyl)-10-(methoxymethyl)-7,12-dimethyl-3-(2,2,2-trifluoroethyl)-1,6,9,12-tetraazabicyclo[11.3.1]heptadecane-2,5,8,11-tetraone]: the half-maximal inhibitory concentration (IC50) came out at 0.26 nM and the Max % inhibition came to 113.0%.
